Values quoted from earlier work as cited in US9345733B1, “Supplement composition for supporting telomere maintenance and protection and method of use” (CELLHEALTH TECHNOLOGIES LTD., priority 2011, dated 2016).
Read-outs that look alike come from different tables or passages of the source. One block for each molecule: values may come before it.

Assays:
[1] = system: endothelial nitric oxide synthase; details: HUVEC, at nanomolar concentrations
[2] = system: vascular smooth muscle cells; details: stimulated by tumor necrosis factor-alpha
[3] = system: human arterial smooth muscle cells (HASMCs)
[4] = system: endothelial progenitor cells
[5] = molecular target: TNF-a (Homo sapiens, UniProt P01375)
TNF-a (Homo sapiens, UniProt P01375), sequence (P01375 77-233 limits assumed, species assumed): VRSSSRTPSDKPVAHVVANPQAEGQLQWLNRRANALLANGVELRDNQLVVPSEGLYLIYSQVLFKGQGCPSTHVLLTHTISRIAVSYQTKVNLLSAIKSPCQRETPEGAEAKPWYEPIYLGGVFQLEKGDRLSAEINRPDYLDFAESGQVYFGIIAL

[6] = system: IL-23p19, IFN-y, TNF-a, IL-6, MCP-1; details: ileum of treated animals
[7] = system: chronic colonic inflammation; details: mice, dietary supplementation; reductions of TNF-a and IL-1β, increase of IL-10
[8] = system: human peripheral blood mononuclear cells; details: stimulated human peripheral blood mononuclear cells in vitro
[9] = system: endothelial nitric oxide synthase; details: human aortic endothelial cells
[10] = system: diseased endothelial cells; details: chronic exposure; via activation of hTERT and transient telomere stabilization
[11] = system: adult rat cardiomyocytes
[12] = system: TNF-a; details: hypertensive rats
[13] = system: alveolar macrophages; details: alveolar macrophages in idiopathic pulmonary fibrosis in vitro
[14] = system: endothelial progenitor cells; details: in culture
[15] = system: NF-κB and TNF-a; details: peripheral blood mononuclear cells of asthma patients, in-vitro

SMILES: CC(C)=CCC[C@](C)(O[C@@H]1O[C@H](CO)[C@@H](O)[C@H](O)[C@H]1O)[C@H]1CC[C@]2(C)[C@@H]1[C@H](O)C[C@@H]1[C@@]3(C)CC[C@H](O)C(C)(C)[C@@H]3[C@@H](O[C@@H]3O[C@H](CO)[C@@H](O)[C@H](O)[C@H]3O)C[C@]12C [ginsenoside Rg1]
endothelial nitric oxide synthase phosphorylation via Akt [1]: induces
proliferation of vascular smooth muscle cells [2]: inhibits
TNF-a-induced HASMCs proliferation [3]: inhibits

TNF-a induced changes of adipokines [5]: inhibits
SMILES: Oc1ccc(C=Cc2cc(O)cc(O)c2)cc1 [resveratrol, Resveratrol]
onset of endothelial progenitor cells senescence [4]: delayed the onset
telomerase ([4]; through the PI3K-Akt signalling pathway): activation of telomerase
pro-inflammatory cytokine expression (IL-23p19, IFN-y, TNF-a, IL-6, MCP-1) [6]: significantly lower
chronic colonic inflammation [7]: attenuates
homocysteine formation [8]: suppresses

SMILES: CC(C)=CCC[C@](C)(O[C@@H]1O[C@H](CO[C@@H]2O[C@H](CO)[C@@H](O)[C@H](O)[C@H]2O)[C@@H](O)[C@H](O)[C@H]1O)[C@H]1CC[C@]2(C)[C@@H]1[C@H](O)C[C@@H]1[C@@]3(C)CC[C@H](O[C@@H]4O[C@H](CO)[C@@H](O)[C@H](O)[C@H]4O[C@@H]4O[C@H](CO)[C@@H](O)[C@H](O)[C@H]4O)C(C)(C)[C@@H]3CC[C@]12C [ginsenoside Rb1]
endothelial nitric oxide synthase-Ser1177 phosphorylation and nitric oxide production [9]: acutely induces

SMILES: CC(=O)N[C@@H](CS)C(=O)O [N-acetylcysteine]
senescence of diseased endothelial cells [10]: can delay senescence
deleterious effect of TNF-a on calcium transients and contraction [11]: prevents
progression of cardiac injury [12]: hinders
serum TNF-a level [12]: normalizes
TNF-a, sTNFR, and TGF-beta1 release [13]: inhibits

SMILES: O=c1c(-c2ccc(O)cc2)coc2c([C@@H]3O[C@H](CO)[C@@H](O)[C@H](O)[C@H]3O)c(O)ccc12 [puerarin, Puerarin]
onset of endothelial progenitor cells senescence [14]: dose dependently prevents
proliferation of endothelial progenitor cells [14]: increases
pathway of NF-κB and TNF-a [15]: could inhibit
